Test results: patent US7098228B2, “Indolyl derivatives” (Hoffmann-La Roche Inc., priority 2002, dated 2006)
pEC50, pIC50: −log10 of the molar value.

Tests used:
PPARγ [1] = target: T1, PPARγ (Mus musculus, UniProt P37238); assay: Luciferase transcriptional reporter gene assay, pFA-PPARγ-LBD in BHK21 cells; type: cell-based
T1 sequence (P37238 204-505): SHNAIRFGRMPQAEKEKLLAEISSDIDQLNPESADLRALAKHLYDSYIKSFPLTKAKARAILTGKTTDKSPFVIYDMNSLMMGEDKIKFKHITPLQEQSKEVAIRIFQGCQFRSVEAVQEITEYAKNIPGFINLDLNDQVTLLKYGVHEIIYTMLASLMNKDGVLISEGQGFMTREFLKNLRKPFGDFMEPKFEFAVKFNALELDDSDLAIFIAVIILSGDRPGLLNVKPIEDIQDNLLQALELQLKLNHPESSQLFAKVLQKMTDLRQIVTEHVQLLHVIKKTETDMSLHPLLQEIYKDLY
Excerpt: (§1) Full-length cDNA clones for human PPARα and mouse PPARγ were obtained by RT-PCR from human adipose and mouse liver cRNA, respectively, cloned into plasmid vectors and verified by DNA sequencing. […] To accomplish this, the portions of the cloned sequences encoding the LBDs were amplified from the full-length clones by PCR and then subcloned into the plasmid vectors. Final clones were verified by DNA sequence analysis.
(§2) Luciferase Transcriptional Reporter Gene Assays
(§3) Baby hamster kidney cells (BHK21 ATCC CCL10) were grown in DMEM medium containing 10% FBS at 37° C. in a 95% O2:5% CO2 atmosphere. Cells were seeded in 6 well plates at a density of 10^5 Cells/well and then batch-transfected with either the pFA-PPARγ-LBD or pFA-PPARα-LBD expression plasmids plus the pFR-luc reporter plasmid and an expression plasmid encoding the secretable form of alkaline phosphatase (SEAP) as a normalization control. […] Six hours following transfection, the cells were harvested by trypsinization and seeded in 96 well plates at a density of 10^4 cells/well. After 24 hours to allow attachment of cells, the medium was removed and replaced with 100 ul of phenol red-free medium containing the test substances or control ligands (final. 0.1% DMSO). Following incubation of the cells for 24 hours with substances, 50 ul of the supernatant was recovered and analyzed for SEAP activity (Roche Molecular Biochemicals). The remainder of the supernatant was discarded, 50 ul PBS was added per well followed by one volume of Luciferase Constant-Light Reagent (Roche Molecular Biochemicals) to lyse the cells and initiate the luciferase reaction. Luminescence for both SEAP and luciferase was measured in a Packard TopCount. Luciferase activity was normalized to the SEAP control and transcriptional activation in the presence of a test substance was expressed as fold-activation over cells incubated in the absence of the substance. EC50 values were calculated using the XLfit program (ID Business Solutions Ltd. UK).

PPARγ [2] = target: T1, PPARγ; assay: PPARγ radioligand binding assay (scintillation proximity, GST-PPARγ-LBD); design: made in house; host or cells: E. coli BL21 (pLysS)
Excerpt: as §1
Induction, expression, and purification of GST-LBD fusion proteins were performed in E. coli strain BL21 (pLysS) cells by standard methods (Ref: Current Protocols in Molecular Biology, Wiley Press, edited by Ausubel et al.).
Radioligand Binding Assay
PPARγ receptor binding was assayed in TKE50 (50 mM Tris-HCl, pH 8, 50 mM KCl, 2 mM EDTA, 0.1 mg/ml fatty acid-free BSA and 10 mM DTT). For each 96 well reaction an 140 ng equivalent of GST-PPARγ-LBD fusion protein was bound to 10 ug SPA beads (PharmaciaAmersham) in a final volume of 50 ul by shaking. The resulting slurry was incubated for 1 h at RT and centrifuged for 2 min at 1300 g. The supernatant containing unbound protein was removed and the semidry pellet containig the recptor-coated beads was resolved in 50 ul of TKE. For radioligand binding e.g. 10000 dpm 2(S)-(2-benzoyl-phenylamino)-3-{4-[1,1-ditritio-2-(5-methyl-2-phenyl-oxazol-4-yl) -ethoxy]-phenyl}-propionic acid in 50 ul were added, the reaction incubated at RT for 1 h and scintillation proximity counting performed. All binding assays were performed in 96 well plates and the amount of bound ligand measured on a Packard TopCount using OptiPlates (Packard). Nonspecific binding was determined in the presence of 10^−4 M unlabelled compound. Dose response curves were done in triplicates within a range of concentration from 10^−10 M to 10^−4 M.

PPARα = target: T2, PPARα (Homo sapiens, UniProt Q07869); assay: Luciferase transcriptional reporter gene assay, pFA-PPARα-LBD in BHK21 cells; type: cell-based
T2 construct: PPARα (aa 167 to 469); expressed in transfected cells; host or cells: BHK21 (ATCC CCL10)
T2 sequence (Q07869 167-468 limits assumed): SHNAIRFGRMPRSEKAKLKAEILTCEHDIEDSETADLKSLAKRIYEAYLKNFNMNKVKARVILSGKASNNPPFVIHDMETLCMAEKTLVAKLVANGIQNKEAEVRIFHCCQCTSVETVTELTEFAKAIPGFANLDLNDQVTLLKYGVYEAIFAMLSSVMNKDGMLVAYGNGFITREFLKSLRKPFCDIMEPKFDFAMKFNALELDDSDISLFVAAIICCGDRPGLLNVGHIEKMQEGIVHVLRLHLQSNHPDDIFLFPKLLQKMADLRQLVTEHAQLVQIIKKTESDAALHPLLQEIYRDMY
Excerpt: as §1, §2, §3

| SMILES | pEC50 (PPARγ [1]) | pIC50 (PPARγ [2]) | pEC50 (PPARα) |
| --- | --- | --- | --- |
| CCOC(Cc1cccc2c1ccn2Cc1nc(-c2cc(OC)cc(OC)c2)oc1C)C(=O)O (racemic) [Example 1, rac-3-{1-[2-(3,5-Dimethoxy-phenyl)-5-methyl-oxazol-4-ylmethyl]-1H-indol-4-yl}-2-ethoxy-propionic acid] | 8.15 | 7.17 | 8.10 |
| CCOC(Cc1cccc2c1ccn2Cc1nc(-c2ccc(C(C)C)cc2)oc1C)C(=O)O (racemic) [Example 2, rac-2-Ethoxy-3-{1-[2-(4-isopropyl-phenyl)-5-methyl-oxazol-4-ylmethyl]-1H-indol-4-yl}-propionic acid] | 7.03 | 7.28 | 6.70 |
| CCOC(Cc1cccc2c1ccn2CCCc1nc(-c2ccccc2)oc1C)C(=O)O (racemic) [Example 3, rac-2-Ethoxy-3-{1-[3-(5-methyl-2-phenyl-oxazol-4-yl)-propyl]-1H-indol-4-yl}-propionic acid] | – | – | 6.72 |
| CCOC(Cc1cccc2c1ccn2Cc1nc(-c2ccc(C(F)(F)F)cc2)oc1C)C(=O)O (racemic) [Example 10, rac-2-Ethoxy-3-{1-[5-methyl-2-(4-trifluoromethyl-phenyl)-oxazol-4-ylmethyl]-1H-indol-4-yl}-propionic acid] | 6.85 | 5.85 | 7.36 |
